“Also recorded” adds a separate entry of the source.
Legend:
[1] = test system: 2-deoxycytidine (dCyt); test: reaction of NNA with dCyt in vitro, adduct formation
Source text: NNA (1-(N-methyl-N-nitrosamino)-1-(3-pyridinyl)-4-butanal) is an important member of the carcinogenic/mutagenic tobacco-specific nitrosamines (TSNAs) and an unique constituent found in the most recently identified health risk called thirdhand smoke (THS). We studied the reactions of NNA with 2-deoxyguanosine (dGuo) and 2-deoxycytidine (dCyt) in vitro with regard to its ability to form stable base adducts, which have not been reported in literature at all. Herein we have identified and characterize potential specific THS biomarkers. We also describe experimental evidence for detrimental effects from exposure to THS, which could be useful for framing and enforcing new policies against indoor smoking.
Herein we describe the first evidence that reaction of NNA with dCyt in vitro results in formation of stable base adducts too, which have not been hereto for been reported in literature.
Using the alkaline Comet assay, we examined the potential of NNA to cause DNA strand breaks in cultured human hepatocellular carcinoma (HepG2) cells. Moreover, the ability of NNA to form DNA adducts with dGuo and dCyt in vitro was investigated and characterized using HPLC-UV, electrospray ionization mass spectrometry (ESI-MS/MS) and NMR. […]

[2] = test system: HepG2 cells; test: alkaline Comet assay, DNA strand breaks; assay type: cell-based; details: human HepG2 cells, exposure 24 h, 37° C.
Source text: (§1) We recently examined the genotoxicity of NNA in human HepG2 cells as well as its ability to modify both 2-deoxyguanosine (dGuo) and 2-deoxycytodine (dCyt) in vitro. […] In the reaction of NNA with dGuo, several adducts were identified with HPLC-UV spectrum, ESI-MS/MS and NMR. These include 8-oxo-2′-deoxyguanosine (8-oxo-dG), 0^6-methyl-dG, and N^2-methyl-dG. NNA also forms a bulky dG adduct with m/z 455.17 for (M+H)^+ in mass spectrum, which is due to the condensation of NNA and dG with the elimination of H2O and two hydrogen molecules. In addition, NNA causes novel DNA sugar damage, forming […]. […] In addition, the NNA-specific DNA adducts identified can be used as specific biomarkers of THS exposure.
FIGS. 3A and 3B: Genotoxic effect of NNA in human HepG2 cells as measured by the Comet assay. HepG2 cells were exposed to varying doses of NNA dissolved in DMEM medium with/without 10% FBS for 24 h. […] (A) Effect of acute THS and THS+HONO. HepG2 cells were exposed to samples at 37° C. for 24 h. The extent of DNA damage was analyzed by % DNA in tail to total DNA from 90 cells. (B) HepG2 cells were exposed to chronic THS at varying dilutions under identical conditions as above.
(§2) Using the alkaline Comet assay, we examined the potential of NNA to cause DNA strand breaks in cultured human hepatocellular carcinoma (HepG2) cells. […]

[3] = test system: 2-deoxyguanosine (dGuo); test: reaction of NNA with dGuo in vitro, DNA adduct formation; details: HPLC-UV, ESI-MS/MS, NMR
Source text: as §1
We discovered that NNA reacts with dGuo (“dG”) and dCyt (“dC”) to form various DNA adducts. […] The chemical structure of this adduct has been proposed and validated using various NMR experiments. Because of its specific structural characteristic, this adduct can serve as a DNA damage “signature” by NNA, thus a potential biomarker for monitoring exposure to thirdhand smoke.
as §2

Row | SMILES | formation of adducts with dC [1] | DNA damage / DNA strand breaks (Comet assay) [2] | formation of DNA adducts with dGuo [3]
1 | CN(N=O)C(CCC=O)c1cccnc1 (stereo not shown) [NNA, 1-(N-methyl-N-nitrosamino)-1-(3-pyridinyl)-4-butanal] | reacts with dC to form multiple adducts | concentration-dependent DNA strand breaks; also recorded: induces DNA damage at low nanomolar concentrations; also recorded: results in DNA strand breaks in exposed cells; also recorded: causes significant DNA damage at nM concentrations | forms multiple DNA adducts in vitro
2 | CN(CCCC(=O)c1cccnc1)N=O [NNK, 4-(methylnitrosamino)-1-(3-pyridyl)-1-butanone, reference compound] | – | induces DNA damage at low nanomolar concentrations; also recorded: causes significant DNA damage at nM concentrations | –

From patent US10538549B2, “NNA-DNA adducts as biomarkers for detecting exposure to thirdhand smoke” (The Regents of the University of California, priority 2014, dated 2020)
